Laboratory results: EP4644375A1, “SUBSTITUTED HYDROQUINOLINES FOR THE TREATMENT OF GLIOBLASTOMA MULTIFORME” (Molius Saglik Teknolojileri Anonim Sirketi, priority 2024, dated 2025)

Columns and labels:
[1] = tested on: U138-MG human glioma cell; test: Cell proliferation analysis (MTT); type: cell-based; conditions: 10 µM, two days, MTT; for activity at 10 µM / inhibition at 10 µM: Homo sapiens, 48 h
Description: (§1) U87-MG and U138-MG human glioma cell, were incubated with 10% fetal bovine serum (FBS) (Gibco, 10500-064), 1% L-glutamine (Gibco, 25030-024), in a humidified incubator with 5% CO2 at 37 °C. The cells were contained in DMEM High Glucose (Gibco, 41966-029) supplemented with 1% penicillin-streptomycin (P/S) (Gibco 15140-122) solution. The cytotoxic effects of the target compounds on U87-MG and U138-MG cell lines were assessed using the MTT (Thiazolyl Blue Tetrazolium Bromide) method. 7×10^3 cells were seeded into a 96-well plate in 100 µl DMEM High Glucose 10% FBS and 1% P/S. 24 hours after cell incubation, each target compound was added at a dose of 10 µM and the drug treatment was carried out for two days. After the incubation period, 10 µL of MTT solution was added to each well (5 mg/ml in PBS). After 2 hours, MTT solutions were removed from the wells. Then, 100 µl DMSO was added, and mixed to dissolve the formazan crystals. Cell proliferation was analysed by measuring the absorbance of dissolved formazan at a wavelength of 570 nm.
(§2) IC50 values were determined using the same method as above wherein the cells were treated with the target compounds at different doses.

U87-MG human glioma cell = test: Cell proliferation analysis (MTT); type: cell-based; conditions: 10 µM, two days, MTT; for activity at 10 µM / inhibition at 10 µM: Homo sapiens, U-87 MG, 48 h
Description: as §1, §2

| Structure (SMILES) | activity at 10 µM [1] [%] | inhibition at 10 µM [1] [%] | activity at 10 µM (U87-MG human glioma cell) [%] | inhibition at 10 µM (U87-MG human glioma cell) [%] | Cell Proliferation (%) [1] [%] | Cell Proliferation (%) (U87-MG human glioma cell) |
| --- | --- | --- | --- | --- | --- | --- |
| CCN(C)C(=O)Oc1ccc2c(c1)CCC(=O)N2 [TR-G037, 2-oxo-1,2,3,4-tetrahydroquinolin-6-yl ethyl(methyl)carbamate] | 65 | 35 | 91 | 9 |  |  |
| O=C(COc1ccc2c(c1)CCC(=O)N2)N/N=C1\C(=O)Nc2ccccc21 [TR-G038, (Z)-2-((2-oxo-1,2,3,4-tetrahydroquinolin-6-yl)oxy)-N'-(2-oxoindolin-3-ylidene)acetohydrazide] | 95 | 5 | 71 | 30 |  |  |
| C=CC(=O)Oc1ccc2c(c1)CCC(=O)N2 [TR-G039, 2-oxo-1,2,3,4-tetrahydroquinolin-6-yl acrylate] | 75 | 25 | 59 | 41 |  |  |
| C=CC(=O)N(NC(=O)COc1ccc2c(c1)CCC(=O)N2)C(=O)C=C [TR-G040, N-acryloyl-N'-(2-((2-oxo-1,2,3,4-tetrahydroquinolin-6-yl)oxy)acetyl)acrylohydrazide] |  | 2 |  | 9 | 98 | 91 |
| Cc1ccc(COc2ccc3c(c2)CCC(=O)N3)cc1 [TR-G041, 6-((4-methylbenzyl)oxy)-3,4-dihydroquinolin-2(1H)-one] | 74 | 26 | 70 | 30 |  |  |
| O=C1CCc2cc(OS(=O)(=O)c3cccc(Cl)c3Cl)ccc2N1 [TR-G042, 2-oxo-1,2,3,4-tetrahydroquinolin-6-yl 2,3-dichlorobenzenesulfonate] |  | 17 |  | 31 | 83 | 70 |
| CN1CCN(c2ccc(NC(=O)COc3ccc4c(c3)CCC(=O)N4)cc2)CC1 [TR-G043, N-(4-(4-methylpiperazin-1-yl)phenyl)-2-((2-oxo-1,2,3,4-tetrahydroquinolin-6-yl)oxy)acetamide] | 74 | 26 | 73 | 27 |  |  |
| CN1C(=O)/C(=N\NC(=O)COc2ccc3c(c2)CCC(=O)N3)c2cc(F)ccc21 [TR-G047, (Z)-N'-(5fluoro-1-methyl-2-oxoindolin-3-ylidene)-2-((2-oxo-1,2,3,4-tetrahydroquinolin-6-yl)oxy)acetohydrazide] | 62 | 38 | 77 | 23 |  |  |
| O=C1CCc2cc(OS(=O)(=O)c3ccc(Br)cc3)ccc2N1 [TR-G048, 2-oxo-1,2,3,4-tetrahydroquinolin-6-yl 4-bromobenzenesulfonate] | 61 | 39 | 69 | 31 |  |  |
| O=C1CCc2cc(OCCCN3C(=O)c4ccccc4C3=O)ccc2N1 [TR-G049, 2-(3-((2-oxo-1,2,3,4-tetrahydroquinolin-6-yl)oxy)propyl)isoindoline-1,3-dione] |  | 37 |  | 24 | 63 | 76 |
| O=C(COc1ccc2c(c1)CCC(=O)N2)N/N=C1\C(=O)Nc2ccc(F)cc21 [TR-G050, (Z)-N'-(5-fluoro-2-oxoindolin-3-ylidene)-2-((2-oxo-1,2,3,4-tetrahydroquinolin-6-yl)oxy)acetohydrazide] | 54 | 46 | 69 | 31 |  |  |
| O=C1CCc2cc(OCC3CC(c4ccc(F)cc4)=NO3)ccc2N1 (stereo not shown) [TR-G051, 6-((3-(4-fluorophenyl)-4,5-dihydroisoxazol-5-yl)methoxy)-3,4-dihydroquinolin-2(1H)-one] | 67 | 33 | 79 | 21 |  |  |
| CC(C)CCn1cc(COc2ccc3c(c2)CCC(=O)N3)nn1 [TR-G052, 6-((1-isopentyl-1H-1,2,3-triazol-4-yl)methoxy)-3,4-dihydroquinolin-2(1H)-one] | 52 | 48 | 85 | 15 |  |  |
| Cc1cn(-c2cc(NC(=O)COc3ccc4c(c3)CCC(=O)N4)cc(C(F)(F)F)c2)cn1 [TR-G054, N-(3-(4-methyl-1H-imidazol-1-yl)-5-(trifluoromethyl)phenyl)-2-((2-oxo-1,2,3,4-tetrahydroquinolin-6-yl)oxy)acetamide] | 79 | 21 | 84 | 16 |  |  |
| O=C(COc1ccc2c(c1)CCC(=O)N2)N/N=C/c1ccc([N+](=O)[O-])cc1 [TR-G055, (E)-N'-(4-nitrobenzylidene)-2-((2-oxo-1,2,3,4-tetrahydroquinolin-6-yl)oxy)acetohydrazide] | 92 | 8 | 85 | 15 |  |  |
| O=C(COc1ccc2c(c1)CCC(=O)N2)N/N=C1\C(=O)Nc2ccc([N+](=O)[O-])cc21 [TR-G056, (Z)-N'-(5-nitro-2-oxoindolin-3-ylidene)-2-((2-oxo-1,2,3,4-tetrahydroquinolin-6-yl)oxy)acetohydrazide] | 83 | 17 | 99 | 1 |  |  |
| CS(=O)(=O)Oc1ccc2c(c1)CCC(=O)N2 [TR-G057, 2-oxo-1,2,3,4-tetrahydroquinolin-6-yl methanesulfonate] | 99 | 1 | 85 | 15 |  |  |
| CC(=O)OCC1OC(n2cc(COc3ccc4c(c3)CCC(=O)N4)nn2)[C@H](OC(C)=O)[C@@H]1OC(C)=O (stereo partly drawn) [TR-G058, (3R,4R)-2-(acetoxymethyl)-5-(4-(((2-oxo-1,2,3,4-tetrahydroquinolin-6-yl)oxy)methyl)-1H-1,2,3-triazol-1-yl)tetrahydrofuran-3,4-diyl diacetate] | 100 | 0 | 73 | 27 |  |  |
| O=C(COc1ccc2c(c1)CCC(=O)N2)N/N=C/c1ccccn1 [TR-G059, (E)-2-((2-oxo-1,2,3,4-tetrahydroquinolin-6-yl)oxy)-N'-(pyridin-2-ylmethylene)acetohydrazide] | 81 | 20 | 79 | 21 |  |  |
| O=C1CCc2cc(OC(=O)N3CCCC3)ccc2N1 [TR-G061, 2-oxo-1,2,3,4-tetrahydroquinolin-6-yl pyrrolidine-1-carboxylate] | 92 | 8 | 84 | 16 |  |  |
| CCCC(CCC)C(=O)Oc1ccc2c(c1)CCC(=O)N2 [TR-G062, 2-oxo-1,2,3,4-tetrahydroquinolin-6-yl 2-propylpentanoate] | 87 | 13 | 87 | 13 |  |  |
| CC(=O)c1ccc(NC(=O)COc2ccc3c(c2)CCC(=O)N3)cc1 [TR-G064, N-(4-acetylphenyl)-2-((2-oxo-1,2,3,4-tetrahydroquinolin-6-yl)oxy)acetamide] | 78 | 22 | 70 | 30 |  |  |
| O=C1CCc2cc(OC(=O)c3ccc(CCl)cc3)ccc2N1 [TR-G065, 2-oxo-1,2,3,4-tetrahydroquinolin-6-yl 4-(chloromethyl)benzoate] | 90 | 10 | 73 | 27 |  |  |
| CCCOc1ccc2c(c1)CCC(=O)N2 [TR-G068, 6-propoxy-3,4-dihydroquinolin-2(1H)-one] | 82 | 18 | 59 | 42 |  |  |
| O=C1CCc2cc(OCC3CC(c4ccc(Cl)cc4)=NO3)ccc2N1 (stereo not shown) [TR-G070, 6-((3-(4-chlorophenyl)-4,5-dihydroisoxazol-5-yl)methoxy)-3,4-dihydroquinolin-2(1H)-one] | 79 | 21 | 68 | 33 |  |  |
| O=C1CCc2cc(OS(=O)(=O)c3ccc(C(F)(F)F)cc3)ccc2N1 [TR-G073, 2-oxo-1,2,3,4-tetrahydroquinolin-6-yl 4-(trifluoromethyl)benzenesulfonate] | 94 | 6 | 87 | 13 |  |  |
| O=C1CCc2cc(OCCCBr)ccc2N1 [TR-G074, 6-(3-bromopropoxy)-3,4-dihydroquinolin-2(1H)-one] |  | 19 |  | 15 | 81 | 85 |
| O=C(COc1ccc2c(c1)CCC(=O)N2)Nc1ccc(F)c(Cl)c1 [TR-G075, N-(3-chloro-4-fluorophenyl)-2-((2-oxo-1,2,3,4-tetrahydroquinolin-6-yl)oxy)acetamide] | 85 | 15 | 68 | 32 |  |  |
